Laboratory results taken from US20030144225A1, “Antisense modulation of macrophage inflammatory protein 3-alpha expression” (priority 2001, published 2003).
Strand notation (5' to 3'): a small letter for the sugar, then the base; units joined by * are phosphorothioate-linked, units joined directly phosphodiester-linked; [ ] holds rarer units or linkages, { } end groups; capitals alone tell only the bases. e = 2'-O-(2-methoxyethyl) (MOE); [5mC] = 5-methylcytosine; d = 2'-deoxy (DNA)

Legend:
[1] = test system: human macrophage inflammatory protein 3-alpha mRNA; test: Antisense inhibition of human macrophage inflammatory protein 3-alpha mRNA levels, quantitative real-time PCR (Table 1 screen); format: cell-based; conditions: averages from two experiments, oligonucleotide concentration not given
[2] = test system: human macrophage inflammatory protein 3-alpha mRNA; test: Dose-response inhibition of cytokine-induced macrophage inflammatory protein 3-alpha mRNA expression in NHEK cells; format: cell-based; conditions: 24 Hr after oligonucleotide treatment, percent inhibition of cytokine-induced control, averages from two experiments; for % Inhibition of cytokine induced macrophage inflammatory protein 3-alpha mRNA expression, 50 nM: 50 nM oligonucleotide; for % Inhibition of cytokine induced macrophage inflammatory protein 3-alpha mRNA expression, 100 nM: 100 nM oligonucleotide; for % Inhibition of cytokine induced macrophage inflammatory protein 3-alpha mRNA expression, 200 nM: 200 nM oligonucleotide

Substance | % INHIB (inhibition of human macrophage inflammatory protein 3-alpha mRNA levels) [1] | % Inhibition of cytokine induced macrophage inflammatory protein 3-alpha mRNA expression, 50 nM [2] [%] | % Inhibition of cytokine induced macrophage inflammatory protein 3-alpha mRNA expression, 100 nM [2] [%] | % Inhibition of cytokine induced macrophage inflammatory protein 3-alpha mRNA expression, 200 nM [2] [%]
150677 (antisense eT*eA*e[5mC]*e[5mC]*e[5mC]*dA*dG*dT*dT*d[5mC]*dT*dT*dT*dG*dG*eG*eA*eG*eT*eG) [compound 150677] | 0% |  |  | 
150678 (antisense eA*eG*eT*eG*eT*dT*dG*dA*dG*dT*dA*d[5mC]*d[5mC]*d[5mC]*dA*eG*eT*eT*e[5mC]*eT) [compound 150678] | 34% |  |  | 
150679 (antisense eA*eG*eA*eT*e[5mC]*dT*dG*d[5mC]*dT*d[5mC]*dA*dG*dT*dG*dT*eT*eG*eA*eG*eT) [compound 150679] | 16% |  |  | 
150680 (antisense e[5mC]*eT*e[5mC]*eA*eA*dA*dG*dA*dA*d[5mC]*dA*dG*dA*dT*d[5mC]*eT*eG*e[5mC]*eT*e[5mC]) [compound 150680] | 41% | 13 | 47 | 68
150681 (antisense eT*eG*eG*eT*eT*dT*dT*dT*dA*dG*d[5mC]*dT*d[5mC]*dA*dA*eA*eG*eA*eA*e[5mC]) [compound 150681] | 22% |  |  | 
150683 (antisense eA*eA*eG*eT*eT*dG*d[5mC]*dT*dT*dG*d[5mC]*dT*dG*d[5mC]*dT*eT*e[5mC]*eT*eG*eA) [compound 150683] | 15% |  |  | 
150684 (antisense e[5mC]*eA*eG*e[5mC]*eA*dG*dT*d[5mC]*dA*dA*dA*dG*dT*dT*dG*e[5mC]*eT*eT*eG*e[5mC]) [compound 150684] | 15% |  |  | 
150685 (antisense eG*eT*eG*eT*eG*dA*dA*dA*dG*dA*dT*dG*dA*dT*dA*eG*e[5mC]*eA*eT*eT) [compound 150685] | 0% |  |  | 
150686 (antisense eA*eT*eT*e[5mC]*e[5mC]*dA*dG*dA*dA*dA*dA*dG*d[5mC]*d[5mC]*dA*e[5mC]*eA*eG*eT*eT) [compound 150686] | 1% |  |  | 
150687 (antisense eG*eT*e[5mC]*e[5mC]*eA*dA*dT*dT*d[5mC]*d[5mC]*dA*dT*dT*d[5mC]*d[5mC]*eA*eG*eA*eA*eA) [compound 150687] | 34% | 19 | 51 | 65
150688 (antisense e[5mC]*eT*eT*eG*eG*dG*d[5mC]*dT*dA*dT*dG*dT*d[5mC]*d[5mC]*dA*eA*eT*eT*e[5mC]*e[5mC]) [compound 150688] | 46% | 43 | 69 | 80
150689 (antisense e[5mC]*eA*eA*eG*eG*dT*dT*d[5mC]*dT*dT*dT*d[5mC]*dT*dG*dT*eT*e[5mC]*eT*eT*eG) [compound 150689] | 41% | 16 | 60 | 77
150692 (antisense eG*e[5mC]*eA*eA*eT*dA*dT*dG*dA*dA*dT*d[5mC]*dA*dA*d[5mC]*eT*eT*e[5mC]*eA*eT) [compound 150692] | 39% | 34 | 59 | 73
150693 (antisense eA*e[5mC]*eT*eA*eT*dG*dA*dT*dG*d[5mC]*dA*dA*dT*dA*dT*eG*eA*eA*eT*e[5mC]) [compound 150693] | 29% | 25 | 58 | 63
150694 (antisense eA*eT*eG*eT*eG*dA*dT*dG*d[5mC]*dT*dT*dA*dA*dA*d[5mC]*eA*eA*eA*eG*e[5mC]) [compound 150694] | 30% |  |  | 
150695 (antisense e[5mC]*eA*e[5mC]*eA*eG*dA*dA*dA*dA*d[5mC]*d[5mC]*dT*dA*d[5mC]*dA*eG*e[5mC]*eT*eA*eT) [compound 150695] | 11% |  |  | 

Substance | % INHIB (inhibition of human macrophage inflammatory protein 3-alpha mRNA levels) [1] | % Inhibition of cytokine induced macrophage inflammatory protein 3-alpha mRNA expression, 50 nM [2] [%] | % Inhibition of cytokine induced macrophage inflammatory protein 3-alpha mRNA expression, 100 nM [2] [%] | % Inhibition of cytokine induced macrophage inflammatory protein 3-alpha mRNA expression, 200 nM [2] [%]
150696 (antisense eG*e[5mC]*eA*e[5mC]*eT*dA*dA*dA*d[5mC]*d[5mC]*dA*dA*dA*dA*dT*eA*eG*e[5mC]*eT*eT) [compound 150696] | 27% |  |  | 
150697 (antisense eG*e[5mC]*eA*eA*eG*dA*dA*dA*dG*dT*d[5mC]*d[5mC]*dA*dT*dA*eT*eA*eA*eT*e[5mC]) [compound 150697] | 18% |  |  | 
150698 (antisense eG*e[5mC]*eA*eA*eT*dT*dA*d[5mC]*dA*dA*d[5mC]*dA*dA*dT*dT*eT*eA*eG*eG*eA) [compound 150698] | 21% |  |  | 
ISIS 150678: 2′-MOE gapmer, phosphorothioate, 5-methylcytidines; AGTGTTGAGTACCCAGTTCT (antisense eA*eG*eT*eG*eT*dT*dG*dA*dG*dT*dA*d[5mC]*d[5mC]*d[5mC]*dA*eG*eT*eT*e[5mC]*eT) | at least 20% |  |  | 
ISIS 150680: 2′-MOE gapmer, phosphorothioate, 5-methylcytidines; CTCAAAGAACAGATCTGCTC (antisense e[5mC]*eT*e[5mC]*eA*eA*dA*dG*dA*dA*d[5mC]*dA*dG*dA*dT*d[5mC]*eT*eG*e[5mC]*eT*e[5mC]) | at least 20% |  |  | 
ISIS 150681: 2′-MOE gapmer, phosphorothioate, 5-methylcytidines; TGGTTTTTAGCTCAAAGAAC (antisense eT*eG*eG*eT*eT*dT*dT*dT*dA*dG*d[5mC]*dT*d[5mC]*dA*dA*eA*eG*eA*eA*e[5mC]) | at least 20% |  |  | 
ISIS 150682: 2′-MOE gapmer, phosphorothioate, 5-methylcytidines; GTACAGCACATGGTTTTAG | at least 20% |  |  | 
ISIS 150687: 2′-MOE gapmer, phosphorothioate, 5-methylcytidines; GTCCAATTCCATTCCAGAAA (antisense eG*eT*e[5mC]*e[5mC]*eA*dA*dT*dT*d[5mC]*d[5mC]*dA*dT*dT*d[5mC]*d[5mC]*eA*eG*eA*eA*eA) | at least 20% |  |  | 
ISIS 150688: 2′-MOE gapmer, phosphorothioate, 5-methylcytidines; CTTGGGCTATGTCCAATTCC (antisense e[5mC]*eT*eT*eG*eG*dG*d[5mC]*dT*dA*dT*dG*dT*d[5mC]*d[5mC]*dA*eA*eT*eT*e[5mC]*e[5mC]) | at least 20% |  |  | 
ISIS 150689: 2′-MOE gapmer, phosphorothioate, 5-methylcytidines; CAAGGTTCTTTCTGTTCTTG (antisense e[5mC]*eA*eA*eG*eG*dT*dT*d[5mC]*dT*dT*dT*d[5mC]*dT*dG*dT*eT*e[5mC]*eT*eT*eG) | at least 20% |  |  | 
ISIS 150690: 2′-MOE gapmer, phosphorothioate, 5-methylcytidines; CTGAAACCTCCAACCCCAGC | at least 20% |  |  | 
ISIS 150692: 2′-MOE gapmer, phosphorothioate, 5-methylcytidines; GCAATATGAATCAACTTCAT (antisense eG*e[5mC]*eA*eA*eT*dA*dT*dG*dA*dA*dT*d[5mC]*dA*dA*d[5mC]*eT*eT*e[5mC]*eA*eT) | at least 20% |  |  | 
ISIS 150693: 2′-MOE gapmer, phosphorothioate, 5-methylcytidines; ACTATGATGCAATATGAATC (antisense eA*e[5mC]*eT*eA*eT*dG*dA*dT*dG*d[5mC]*dA*dA*dT*dA*dT*eG*eA*eA*eT*e[5mC]) | at least 20% |  |  | 
ISIS 150694: 2′-MOE gapmer, phosphorothioate, 5-methylcytidines; ATGTGATGCTTAAACAAAGC (antisense eA*eT*eG*eT*eG*dA*dT*dG*d[5mC]*dT*dT*dA*dA*dA*d[5mC]*eA*eA*eA*eG*e[5mC]) | at least 20% |  |  | 
ISIS 150696: 2′-MOE gapmer, phosphorothioate, 5-methylcytidines; GCACTAAACCAAAATAGCTT (antisense eG*e[5mC]*eA*e[5mC]*eT*dA*dA*dA*d[5mC]*d[5mC]*dA*dA*dA*dA*dT*eA*eG*e[5mC]*eT*eT) | at least 20% |  |  | 
ISIS 150698: 2′-MOE gapmer, phosphorothioate, 5-methylcytidines; GCAATTACAACAATTTAGGA (antisense eG*e[5mC]*eA*eA*eT*dT*dA*d[5mC]*dA*dA*d[5mC]*dA*dA*dT*dT*eT*eA*eG*eG*eA) | at least 20% |  |  | 
